The values below come from patent US20070037785A1, “Novel dipeptidyl peptidase IV inhibitors used for functionally influencing different cells and treating immunological, infammatory, neuronal, and other diseases” (priority 2003, published 2007).

SMILES strings stand for the structures.

Sequence of dipeptidyl peptidase IV (P27487 whole entry, species assumed): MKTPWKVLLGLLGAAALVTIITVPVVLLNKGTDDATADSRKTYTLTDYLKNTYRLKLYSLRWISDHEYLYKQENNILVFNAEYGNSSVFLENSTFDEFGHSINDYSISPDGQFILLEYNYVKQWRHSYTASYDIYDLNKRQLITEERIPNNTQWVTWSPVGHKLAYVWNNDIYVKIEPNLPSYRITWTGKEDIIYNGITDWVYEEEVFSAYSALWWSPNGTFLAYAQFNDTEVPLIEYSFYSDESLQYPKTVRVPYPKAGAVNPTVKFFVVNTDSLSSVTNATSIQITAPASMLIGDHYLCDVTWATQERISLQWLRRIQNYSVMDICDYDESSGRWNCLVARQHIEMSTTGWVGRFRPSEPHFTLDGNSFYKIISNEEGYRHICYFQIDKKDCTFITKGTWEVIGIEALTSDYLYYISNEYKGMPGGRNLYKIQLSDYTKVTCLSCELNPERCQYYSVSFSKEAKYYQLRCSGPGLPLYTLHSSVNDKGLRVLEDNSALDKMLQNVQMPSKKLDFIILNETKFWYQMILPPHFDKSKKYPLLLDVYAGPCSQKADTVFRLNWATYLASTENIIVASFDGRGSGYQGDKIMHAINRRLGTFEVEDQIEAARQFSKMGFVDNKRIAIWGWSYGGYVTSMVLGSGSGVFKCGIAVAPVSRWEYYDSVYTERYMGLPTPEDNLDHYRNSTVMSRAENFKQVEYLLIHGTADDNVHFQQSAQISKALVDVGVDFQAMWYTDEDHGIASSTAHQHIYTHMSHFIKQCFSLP

The assay concerns the target dipeptidyl peptidase IV (Homo sapiens, UniProt P27487). Description: biochemical. Particulars: values without "*" = IC-50; read-out: IC50DPIV.
In the case of `O=C(N/N=C/c1cc([N+](=O)[O-])ccc1O)c1cccc2cc[nH]c12` [D10.009], the IC50 was 8.1 µM.

`COc1cc(Br)cc(Br)c1OCC(=O)N/N=C/c1cc(O)c(O)c(Br)c1Br` [D10.010]: the IC50 worked out at 9.1 µM.

`CC(=O)N(C(C)=O)c1nc(-c2ccccc2)cn1/N=C/c1ccccc1` [D10.011]: the IC50 was determined as 9.9 µM.

For `Nc1nonc1-n1nnc(C(=O)NN=C2c3ccccc3-c3ccccc32)c1-c1ccccc1` [D10.012], the IC50 stood at 10 µM.

`COc1cc(Br)ccc1OCC(=O)N/N=C/c1cc(O)c(O)c(Br)c1Br` [D10.013]: the IC50 stood at 10.2 µM.

`O=C(COc1cccc(Br)c1)N/N=C/c1cc(O)c(O)c(Br)c1Br` [D10.014]: the IC50 stood at 11.4 µM.

With `Brc1cccc(/C=N/Nc2nnc3c(n2)[nH]c2ccccc23)c1` [D10.015], the IC50 came out at 12.2 µM.

For `COc1ccc(/C=N/NC(=O)c2cc(O)c(O)c(O)c2)cc1COc1cc(C)c(Cl)c(C)c1` [D10.016], the IC50 was found to be 12.3 µM.

Regarding `COc1ccccc1/C=N/NC(=O)c1cccc([N+](=O)[O-])c1` [D10.017], the IC50 was 12.3 µM.

Consider `O=C(Cn1c2ccccc2c(=O)c2ccccc21)NN=Cc1cc(Br)c(O)c(Br)c1` [D10.018], for which the IC50 came to 12.4 µM.

Turning to `COc1c(OC(C)=O)ccc(/C=N/NC(=O)CNc2cccc(C)c2)c1[N+](=O)[O-]` [D10.019], the IC50 was determined as 12.7 µM.

For `O=C(CCCCC(=O)N/N=C/c1ccccc1[N+](=O)[O-])N/N=C/c1ccccc1[N+](=O)[O-]` [D10.020], the IC50 was 12.8 µM.

Regarding `Cc1cccc(C(=O)Oc2c(Br)cc(Br)cc2/C=N/NC(=O)CNC(=O)c2ccc(Cl)cc2)c1` [D10.021], the IC50 came out at 13.2 µM.

Take `C/C(=N\NC(=O)CSCc1ccccc1Br)c1ccc(I)cc1` [D10.022]: the IC50 amounted to 13.2 µM.

For `CCOc1cc(/C=N/NC(=O)c2cc(C)n[nH]2)ccc1O` [D10.023], the IC50 amounted to 13.6 µM.

With `CCOc1cc(/C=N/NC(=O)c2cc(C)oc2C)ccc1O` [D10.025], the IC50 turned out to be 16.2 µM.

As for `O=C(N/N=C/c1ccc(-c2ccc(Cl)cc2)o1)/C(=C/c1ccc([N+](=O)[O-])cc1)NC(=O)c1ccccc1` [D10.026], the IC50 was 16.4 µM.

With `CCOc1cc(/C=N\NC(=O)c2cnccn2)ccc1O` [D10.027], the IC50 worked out at 16.7 µM.

On to `O=C(N/N=C/c1ccc(OC(=O)c2ccco2)c([N+](=O)[O-])c1)/C(=C\c1cccs1)NC(=O)c1ccccc1` [D10.028], for which the IC50 was determined as 16.7 µM.

Regarding `O=C(N/N=C/c1cc([N+](=O)[O-])cc([N+](=O)[O-])c1O)/C(=C\c1cccs1)NC(=O)c1ccccc1` [D10.029], the IC50 stood at 17.5 µM.

For `Cc1ccc(OCC(=O)N/N=C\c2ccc(O)c([N+](=O)[O-])c2)c([N+](=O)[O-])c1` [D10.030], the IC50 was 17.8 µM.

For `COc1ccc2ccccc2c1/C=N/NC(=O)c1cc2ccccc2cc1O` [D10.031], the IC50 was 17.8 µM.

Take `O=C(CNc1ccc2ccccc2c1)N/N=C1/C(=O)Nc2ccc([N+](=O)[O-])cc21` [D10.032]: the IC50 came to 18.2 µM.

`COc1cc(/C=N/NC(=O)COc2ccc(C(C)(C)CC(C)(C)C)cc2)cc([N+](=O)[O-])c1O` [D10.033]: the IC50 stood at 18.9 µM.

With `CCOc1cc(/C=N/NC(=O)c2cc(O)c(O)c(O)c2)ccc1O` [D10.034], the IC50 was found to be 19.1 µM.

In the case of `CCOc1cc(/C=N/NC(=O)COc2ccc(Cl)cc2)ccc1OC(=O)c1ccc(Br)cc1` [D10.035], the IC50 amounted to 20 µM.

For the compound `O=C(Cn1nnc(-c2ccc(F)cc2)n1)N/N=C/c1ccc(-c2ccc3c(c2)COC3=O)o1` [D10.036], the IC50 is 20.3 µM.

As for `CCN(CC)c1ccc(/C=C(/NC(=O)c2ccccc2)C(=O)N/N=C/c2c(C)c(Br)c(O)c(Br)c2O)cc1` [D10.037], the IC50 is 20.4 µM.

As to `CC(/C=N/NC(=O)CNc1ccc(C)cc1)=C\c1ccc(/C=C(C)/C=N/NC(=O)CNc2ccc(C)cc2)cc1` [D10.038], the IC50 is 20.5 µM.

On to `CCOc1cc(/C=N/NC(=O)c2cc(C3CC3)[nH]n2)ccc1O` [D10.039], for which the IC50 was determined as 20.8 µM.

Consider `O=C(N/N=C/c1ccc([N+](=O)[O-])o1)c1ccccc1I` [D10.040], for which the IC50 was found to be 20.9 µM.

For the compound `COc1cc(/C=N/NC(=O)c2ccco2)cc(OC)c1OC(C)=O` [D10.041], the IC50 is 21.8 µM.

Take `O=C(N/N=C/c1cc(Br)ccc1OC(=O)c1ccco1)/C(=C\c1cccs1)NC(=O)c1ccccc1` [D10.042]: the IC50 worked out at 24.1 µM.

Consider `O=C(N/N=C\c1cccc(OC(=O)c2ccc([N+](=O)[O-])cc2)c1)/C(=C/c1ccc2c(c1)OCO2)NC(=O)c1ccccc1` [D10.043], for which the IC50 was 24.2 µM.

On to `O=C(COc1cccc([N+](=O)[O-])c1)N/N=C/c1ccc(O)c([N+](=O)[O-])c1` [D10.044], for which the IC50 amounted to 24.4 µM.

`Cc1ccc(/C=N/NC(=O)c2ccc(NC(=O)c3cccc([N+](=O)[O-])c3)cc2)o1` [D10.045]: the IC50 came out at 28.8 µM.

With `COc1cc(Br)c(OCC(=O)N/N=C/c2cc(Br)c(O)c(O)c2Br)c(Br)c1` [D10.046], the IC50 was found to be 29.2 µM.

In the case of `C/C(=N\NC(=O)c1cc(C)n[nH]1)c1ccc(-c2ccccc2)cc1` [D10.047], the IC50 was found to be 29.8 µM.

Regarding `O=C(COc1cccc(Cl)c1)N/N=C/c1ccc(O)c([N+](=O)[O-])c1` [D10.049], the IC50 is 31.9 µM.

As for `COc1cc(Br)cc(Br)c1OCC(=O)N/N=C/c1ccc(O)c([N+](=O)[O-])c1` [D10.050], the IC50 stood at 32.1 µM.

Regarding `CN(C)c1ccc(/C=C(\NC(=O)c2ccccc2)C(=O)N/N=C/c2cc(/N=N/c3ccccc3)ccc2O)cc1` [D10.051], the IC50 turned out to be 33.9 µM.

With `CC(=O)Oc1ccc(-c2ccc(/C=N/NC(=O)C34CC5CC(C3)CC(c3ccc(C)cc3)(C5)C4)cc2)cc1` [D10.052], the IC50 was determined as 32.9 µM.

Consider `COc1ccc(/C(C)=N/NC(=O)CNc2ccc3ccccc3c2)cc1OC` [D10.053], for which the IC50 stood at 32.9 µM.

`O=C(N/N=C/c1cccc(Oc2ccccc2)c1)c1cc(Br)cc(Br)c1O` [D10.054]: the IC50 worked out at 33.3 µM.

On to `C/C(=N\NC(=O)/C(=C\c1ccc(F)cc1)NC(=O)c1ccccc1)c1ccccc1O` [D10.055], for which the IC50 was 33.4 µM.

On to `O=C(N/N=C/c1c(O)ccc2ccccc12)c1cc(-c2ccc(-c3ccccc3)cc2)n[nH]1` [D10.056], for which the IC50 amounted to 33.5 µM.

For `CN(/N=C/c1sc(=O)[nH]c1Cl)c1ccccc1` [D10.057], the IC50 amounted to 32.4 µM.

Regarding `COc1ccc(/C=N/N=C2\NC(=O)C(Cc3cccc(C(F)(F)F)c3)S2)cc1` (stereo not shown) [D10.058], the IC50 amounted to 34.2 µM.

For `O=C(N/N=C/c1cccc(I)c1)c1cc(Br)ccc1O` [D10.060], the IC50 came to 36.3 µM.

For `CN(C)c1ccc(/C=C(\NC(=O)c2ccccc2)C(=O)N/N=C/c2ccccc2[N+](=O)[O-])cc1` [D10.061], the IC50 amounted to 39.2 µM.

For `O=C(N/N=C/c1cc(I)cc(I)c1O)c1ccc(NC(=O)c2ccccc2)cc1` [D10.062], the IC50 came to 39.7 µM.

Take `COc1ccc(C(=O)N/N=C/c2ccc(Cl)cc2Cl)cc1` [D10.063]: the IC50 was found to be 40.4 µM.

With `Cc1ccc(C)n1-c1cccc(C(=O)N/N=C/c2cc(Br)c(O)c(Br)c2)c1` [D10.065], the IC50 amounted to 41 µM.

On to `COc1cc(/C=N/NC(=O)CNC(=O)c2ccc(Cl)cc2)ccc1OC(=O)c1cccc(F)c1` [D10.066], for which the IC50 came out at 42 µM.

For `COc1cc(Br)ccc1OCC(=O)N/N=C/c1cc(Br)c(O)c(O)c1Br` [D10.067], the IC50 was found to be 45 µM.
